Patent US8735388B2, “Heterocyclic compounds with affinity to muscarinic receptors” (Abbvie B. V. A., priority 2007, dated 2014)
pEC50, pKi: −log10 of the molar value. Read-outs that look alike come from different tables or passages of the source.

Assays:
[1] = biological target: T1, Muscarine M4 (GPCR-A-MA-ACH M4) (Homo sapiens, UniProt P08173); experiment: Muscarine M4 receptor binding, 3H-4DAMP; conditions: human M4, CHO cells, ligand 0.2 nM, 60 min/22° C., read-out: RB Musc. M4 3H-DAMP pKi (converted)
T1 construct: expressed in transfected cells; host or cells: CHO cells
T1 sequence (P08173 1-479): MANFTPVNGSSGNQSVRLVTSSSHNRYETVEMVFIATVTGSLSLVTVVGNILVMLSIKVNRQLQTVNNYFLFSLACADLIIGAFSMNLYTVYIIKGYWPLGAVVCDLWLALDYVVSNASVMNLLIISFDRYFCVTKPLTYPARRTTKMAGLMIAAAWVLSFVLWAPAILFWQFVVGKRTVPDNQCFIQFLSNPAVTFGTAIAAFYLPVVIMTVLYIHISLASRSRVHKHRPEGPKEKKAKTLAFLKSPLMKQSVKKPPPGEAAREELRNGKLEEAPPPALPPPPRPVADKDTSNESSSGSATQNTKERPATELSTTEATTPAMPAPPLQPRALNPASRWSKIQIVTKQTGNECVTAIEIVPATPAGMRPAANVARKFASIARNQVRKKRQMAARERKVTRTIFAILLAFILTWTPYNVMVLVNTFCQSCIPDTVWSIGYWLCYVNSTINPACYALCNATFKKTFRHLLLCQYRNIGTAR
Procedure, shortened: (§1)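 Human M1 ([3H]-pirenzepine), M3, and M4 ([3H]-4DAMP or [3H]-oxotremorine) receptor preparations incubated with radioligand and compound, first at 10 μM, then at 10-fold lower concentrations if inhibition exceeded 40%. Bound ligand separated by glass-fibre filtration and counted by scintillation. IC50 from Hill fit, converted to Ki via Cheng-Prusoff, reported as pKi.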

[2] = biological target: T1, Muscarine M4 (GPCR-A-MA-ACH M4); experiment: Muscarine M4 receptor binding, 3H-Oxotremorine; conditions: for Ki: human M4, CHO cells, receptor binding, ligand 6 nM, 30 min/25° C., read-out: RB Musc. M4 3H-Oxotremorine pKi (converted)
Procedure, shortened: as §1

[3] = Stability in human liver homogenate (metabolic stability in vitro); assay type: in vitro ADME; conditions: read-out: t ½
Excerpt: DÖRJE, F., WESS, J., LAMBRECHT, G., TACKE, R., […], E. and BRANN, M. R. (1991) Antagonist binding profiles of five cloned human muscarinic receptor subtypes. J. Pharmacol. Exp. Ther., 256: 727-733. • […], M. H. (1990) Rat hippocampal muscarinic autoreceptors are similar to the M2 (cardiac) subtype: comparison with hippocampal M1, atrial M2 and ileal M3 receptors. Brit. J. Pharmacol., 99: 753-761. • PERALTA, E. G., ASHKENAZI, A., WINSLOW, J. W., SMITH, D. H., […], J. and CAPON, D. J. (1987) Distinct primary structures, ligand-binding properties and tissue-specific expression of four human muscarinic acetylcholine receptors. EMBO. J., 6: 3923-3929. Determination of Metabolic Stability (In Vitro)
Method used according to procedures described by DI, L. et al., Journal of Biomolecular Screening, Vol. 8, No. 4, 453-462 (2003).

[4] = biological target: T2, Muscarine M1 (GPCR-A-MA-ACH M1) (Homo sapiens, UniProt P11229); experiment: Muscarine M1 cell-based functional assay (CHO cells, Ca2+ - FLIPR Fluorimetry); conditions: read-out: Cell funct. Musc. M1 Agonism pEC50 (converted)
T2 construct: expressed in transfected cells; host or cells: CHO cells
T2 sequence (P11229 1-460): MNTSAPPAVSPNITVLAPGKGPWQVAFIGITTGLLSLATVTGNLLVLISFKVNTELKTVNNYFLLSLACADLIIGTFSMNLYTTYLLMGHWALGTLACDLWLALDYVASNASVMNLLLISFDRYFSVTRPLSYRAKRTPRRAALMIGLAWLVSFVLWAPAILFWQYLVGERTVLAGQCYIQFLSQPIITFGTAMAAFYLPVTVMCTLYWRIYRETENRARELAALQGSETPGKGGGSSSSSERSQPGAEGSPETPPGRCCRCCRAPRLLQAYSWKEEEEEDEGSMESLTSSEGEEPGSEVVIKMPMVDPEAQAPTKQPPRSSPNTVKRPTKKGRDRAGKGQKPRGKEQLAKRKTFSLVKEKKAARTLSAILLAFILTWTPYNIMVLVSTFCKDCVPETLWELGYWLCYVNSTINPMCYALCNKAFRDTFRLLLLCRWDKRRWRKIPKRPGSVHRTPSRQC

[5] = biological target: T2, Muscarine M1 (GPCR-A-MA-ACH M1); experiment: Muscarine M1 receptor binding, 3H-Pirenzepine; conditions: human M1, CHO cells, ligand 2 nM, 60 min/22° C., read-out: RB Musc. M1 3H-Pirenzepine pKi (converted)
Procedure, shortened: as §1

[6] = biological target: T1, Muscarine M4 (GPCR-A-MA-ACH M4); experiment: Muscarine M4 cell-based functional assay (CHO cells, Ca2+ - Aequorin luminescence); conditions: for EC50: human M4, CHO cells, agonist mode, reference agonist oxotremorine, read-out: Cell funct. Musc. M4 Agonism pEC50 (converted)
Procedure, shortened: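 CHO cells expressing human M4 were exposed to compound, with Ca2+ response read by aequorin luminescence. Compounds were first tested at 1 μM, then at 10-fold lower concentrations if active; stimulation or inhibition was relative to the reference agonist. EC50/IC50 came from Hill-equation fits.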

[7] = biological target: T3, Muscarine M3 (GPCR-A-MA-ACH M3) (Homo sapiens, UniProt P20309); experiment: Muscarine M3 receptor binding
T3 construct: expressed in transfected cells; host or cells: CHO cells

[8] = biological target: T4, Muscarine M2 (GPCR-A-MA-ACH M2) (Cavia porcellus, UniProt H0VRN8); experiment: Muscarine M2 functional assay, isolated organ (left atrium, electrically paced), agonist and antagonist mode; design: species or system Guinea Pig; conditions: for EC50: read-out: Cell funct. Musc. M2 Agonism pEC50 (converted)
T4 construct: from tissue; host or cells: guinea pig left atrium (electrically paced)
T4 sequence (H0VRN8 1-466): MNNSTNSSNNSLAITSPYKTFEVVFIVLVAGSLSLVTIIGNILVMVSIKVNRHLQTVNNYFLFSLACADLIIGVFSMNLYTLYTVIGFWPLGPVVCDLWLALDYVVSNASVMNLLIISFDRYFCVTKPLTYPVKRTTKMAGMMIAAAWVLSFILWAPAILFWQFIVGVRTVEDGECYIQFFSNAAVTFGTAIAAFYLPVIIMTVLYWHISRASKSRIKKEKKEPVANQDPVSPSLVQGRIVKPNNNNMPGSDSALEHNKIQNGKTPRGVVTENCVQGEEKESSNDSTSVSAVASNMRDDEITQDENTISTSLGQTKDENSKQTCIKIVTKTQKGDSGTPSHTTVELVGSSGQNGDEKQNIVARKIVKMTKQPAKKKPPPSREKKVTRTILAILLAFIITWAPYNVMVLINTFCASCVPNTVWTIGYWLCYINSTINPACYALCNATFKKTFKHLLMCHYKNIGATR

[9] = biological target: T5, Muscarine M3 (GPCR-A-MA-ACH M3) (Cavia porcellus, UniProt H0W1Z3); experiment: Muscarine M3 functional assay, isolated organ (ileum), agonist and antagonist mode; design: species or system Guinea Pig; conditions: for EC50: read-out: Cell funct. Musc. M3 Agonism pEC50 (converted)
T5 construct: from tissue; host or cells: guinea pig ileum

[10] = biological target: T6, Muscarine M2 (GPCR-A-MA-ACH M2) (Homo sapiens, UniProt P08172); experiment: Muscarine M2 receptor binding
T6 construct: expressed in transfected cells; host or cells: CHO cells
T6 sequence (P08172 1-466): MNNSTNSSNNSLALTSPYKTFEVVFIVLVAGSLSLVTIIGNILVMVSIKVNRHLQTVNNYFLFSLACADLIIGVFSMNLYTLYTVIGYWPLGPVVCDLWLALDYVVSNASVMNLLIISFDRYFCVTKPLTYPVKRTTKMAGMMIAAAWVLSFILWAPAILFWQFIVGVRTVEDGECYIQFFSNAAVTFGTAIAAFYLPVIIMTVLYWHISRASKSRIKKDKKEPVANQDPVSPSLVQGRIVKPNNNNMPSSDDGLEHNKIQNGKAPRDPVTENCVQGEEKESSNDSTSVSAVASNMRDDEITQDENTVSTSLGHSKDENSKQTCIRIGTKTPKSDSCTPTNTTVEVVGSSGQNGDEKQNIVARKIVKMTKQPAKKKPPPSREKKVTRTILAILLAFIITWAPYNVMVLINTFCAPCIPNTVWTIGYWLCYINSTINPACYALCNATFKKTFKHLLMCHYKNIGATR

[11] = in words, background section; cited from earlier work
[12] = human M1, CHO cells, agonist mode, reference agonist acetylcholine

T5 sequence (H0W1Z3 1-590): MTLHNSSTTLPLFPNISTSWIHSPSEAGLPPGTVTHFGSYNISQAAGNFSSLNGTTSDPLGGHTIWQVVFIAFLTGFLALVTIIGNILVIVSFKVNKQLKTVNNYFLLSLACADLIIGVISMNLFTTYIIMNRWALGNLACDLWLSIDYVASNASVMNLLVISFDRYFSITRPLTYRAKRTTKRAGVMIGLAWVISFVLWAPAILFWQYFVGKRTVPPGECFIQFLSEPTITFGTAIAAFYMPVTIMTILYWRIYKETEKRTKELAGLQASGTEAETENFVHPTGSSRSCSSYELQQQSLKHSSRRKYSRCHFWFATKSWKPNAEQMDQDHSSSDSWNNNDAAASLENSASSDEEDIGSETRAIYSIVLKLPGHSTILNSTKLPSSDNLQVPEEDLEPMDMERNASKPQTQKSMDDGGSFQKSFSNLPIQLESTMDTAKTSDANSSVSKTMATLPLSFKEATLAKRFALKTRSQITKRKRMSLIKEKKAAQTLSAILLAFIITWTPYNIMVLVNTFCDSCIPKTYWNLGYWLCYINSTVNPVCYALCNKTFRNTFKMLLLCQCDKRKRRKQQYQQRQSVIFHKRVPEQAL
T3 sequence (P20309 whole entry): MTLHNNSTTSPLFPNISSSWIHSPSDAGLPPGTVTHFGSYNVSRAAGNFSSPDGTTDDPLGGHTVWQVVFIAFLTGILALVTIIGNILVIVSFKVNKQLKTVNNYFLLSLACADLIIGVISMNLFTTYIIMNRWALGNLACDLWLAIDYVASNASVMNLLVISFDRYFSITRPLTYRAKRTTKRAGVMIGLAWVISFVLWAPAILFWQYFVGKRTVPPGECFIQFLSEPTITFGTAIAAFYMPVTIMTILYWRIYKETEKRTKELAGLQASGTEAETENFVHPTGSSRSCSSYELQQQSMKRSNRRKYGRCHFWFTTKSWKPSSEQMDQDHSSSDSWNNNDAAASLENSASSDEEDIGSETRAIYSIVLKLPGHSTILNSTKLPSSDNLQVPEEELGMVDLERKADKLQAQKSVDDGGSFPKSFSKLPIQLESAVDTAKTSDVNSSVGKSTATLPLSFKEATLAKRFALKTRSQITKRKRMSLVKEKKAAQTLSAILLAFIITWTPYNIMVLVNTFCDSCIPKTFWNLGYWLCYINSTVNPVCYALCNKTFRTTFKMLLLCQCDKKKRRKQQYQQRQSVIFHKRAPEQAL

SMILES	Ki [1] [nM]	Ki [2] [nM]	half-life [3] [min]	EC50 [4, 12] [nM]	Ki [5] [nM]	EC50 [6] [nM]	melting point [°C]	pKi [2]	EC50 [4] [nM]	pEC50 [6]	pKi [7]	Kb [8] [nM]	EC50 [8] [nM]	Kb [9] [nM]	EC50 [9] [nM]	pKi [10]	(in vitro) metabolic stability [11]
CN1CCC=C(c2n[nH]cc2SCCCC(F)(F)F)C1 [Compound 22B, 3-[4-(4,4,4-trifluoro-butylsulfanyl)-1H-pyrazol-3-yl]-1,2,5,6-tetrahydro-1-methylpyridine]	126	398	52	79.4	501	501											
CCCSc1c[nH]nc1C1=CCCN(C)C1 [Compound 22E, 3-(4-Propylsulfanyl-1H-pyrazol-3-yl)-1,2,5,6-tetrahydro-1-methylpyridine]	316	100			398	> 10000	111										
CCCCSc1c[nH]nc1C1=CCCN(C)C1 [Compound 22F, 3-(4-Butylsulfanyl-1H-pyrazol-3-yl)-1,2,5,6-tetrahydro-1-methylpyridine]	39.8	63.1		200	316	126	120 to 121										
CCCCCSc1c[nH]nc1C1=CCCN(C)C1 [Compound 22G, 3-(4-Pentylsulfanyl-1H-pyrazol-3-yl)-1,2,5,6-tetrahydro-1-methylpyridine]	50.1	200	50	39.8	200	316	100 to 101										
CCCCSc1c[nH]nc1C1CN2CCC1CC2 (centres unmarked) [Compound 49A, 3-(4-Butylsulfanyl-1H-pyrazol-3-yl)-1-azabicyclo[2.2.2]octane]	15.8				126		162 to 164	7.60	10	7.40							
CCCCCSc1c[nH]nc1C1CN2CCC1CC2 (centres unmarked) [Compound 49B, 3-(4-Pentylsulfanyl-1H-pyrazol-3-yl)-1-azabicyclo[2.2.2]octane]	25.1				158		142 to 145	8.10	10	8.20	7.20	> 1000	> 1000	> 1000	> 1000	6.20	
CSc1c[nH]nc1C1CN2CCC1CC2 (centres unmarked) [Compound 49C, 3-(4-Methylsulfanyl-1H-pyrazol-3-yl)-1-azabicyclo[2.2.2]octane]	126				1000		145 to 147	6.90	79.4	6.30							
CCCCCCSc1c[nH]nc1C1CN2CCC1CC2 (centres unmarked) [Compound 49F, 3-(4-Hexylsulfanyl-1H-pyrazol-3-yl)-1-azabicyclo[2.2.2]octane]	50.1				251		130	7.90	794	7.90	7.00	> 1000	> 1000	> 1000	> 1000	6.40	
CC(C)CCSc1c[nH]nc1C1CN2CCC1CC2 (centres unmarked) [Compound 49H, 3-[4-(3-Methyl-butylsulfanyl)-1H-pyrazol-3-yl]-1-azabicyclo[2.2.2]octane]	39.8				158		157 to 159	7.50	50.1	< 5.00							
CCCCCCOc1nsnc1C1=CCCN(C)C1 [Xanomeline, reference compound]			17														relatively low
